The Kinase Knowledgebase extract (Sharma et al. 2016)

Key:
EGFR (human) [1] = target: EGFR (human) (UniProt P00533); settings: mcf7
EGFR (human) [2] = target: EGFR (human) (UniProt P00533); settings: a431
EGFR (human) [3] = target: EGFR (human) (UniProt P00533); settings: a549

Chain of EGFR (human) (P00533 whole entry, looked up): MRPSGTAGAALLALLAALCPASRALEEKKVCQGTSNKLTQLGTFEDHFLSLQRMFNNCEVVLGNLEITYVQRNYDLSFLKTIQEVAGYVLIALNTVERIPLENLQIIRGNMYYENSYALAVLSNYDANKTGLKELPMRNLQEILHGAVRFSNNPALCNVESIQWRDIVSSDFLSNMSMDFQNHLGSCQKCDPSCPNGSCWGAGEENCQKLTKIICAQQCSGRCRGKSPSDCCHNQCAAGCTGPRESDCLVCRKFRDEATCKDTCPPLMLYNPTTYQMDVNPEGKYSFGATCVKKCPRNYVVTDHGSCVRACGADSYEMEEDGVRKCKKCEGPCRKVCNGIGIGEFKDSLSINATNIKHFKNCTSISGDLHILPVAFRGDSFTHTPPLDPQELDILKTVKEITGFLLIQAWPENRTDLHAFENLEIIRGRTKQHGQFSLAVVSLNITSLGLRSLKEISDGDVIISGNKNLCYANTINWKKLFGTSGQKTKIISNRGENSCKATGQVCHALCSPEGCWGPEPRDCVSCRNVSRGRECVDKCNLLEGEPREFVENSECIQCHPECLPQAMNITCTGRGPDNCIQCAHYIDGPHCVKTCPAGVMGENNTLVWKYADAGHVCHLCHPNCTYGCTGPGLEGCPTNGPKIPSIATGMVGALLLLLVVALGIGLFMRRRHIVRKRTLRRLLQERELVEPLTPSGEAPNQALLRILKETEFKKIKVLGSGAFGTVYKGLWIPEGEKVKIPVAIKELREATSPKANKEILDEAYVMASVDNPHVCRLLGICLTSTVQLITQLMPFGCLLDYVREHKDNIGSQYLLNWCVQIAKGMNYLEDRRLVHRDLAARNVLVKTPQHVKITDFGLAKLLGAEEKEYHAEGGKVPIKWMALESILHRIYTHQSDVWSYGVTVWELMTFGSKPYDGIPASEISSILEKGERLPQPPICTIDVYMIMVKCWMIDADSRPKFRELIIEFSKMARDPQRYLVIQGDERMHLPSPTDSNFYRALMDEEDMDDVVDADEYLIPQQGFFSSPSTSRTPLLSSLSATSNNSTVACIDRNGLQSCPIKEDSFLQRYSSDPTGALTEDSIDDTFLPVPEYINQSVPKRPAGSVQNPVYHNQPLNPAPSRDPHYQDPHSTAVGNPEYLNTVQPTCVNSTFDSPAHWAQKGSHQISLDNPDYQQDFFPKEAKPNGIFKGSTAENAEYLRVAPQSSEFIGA

SMILES | IC50 (EGFR (human) [1]) [µM] | IC50 (EGFR (human) [2]) [µM] | IC50 (EGFR (human) [3]) [µM]
O=C(Nc1ccc2ncnc(Nc3cccc(Cl)c3)c2c1)C1COc2ccccc2O1 (centres undefined) | 78 | 29.7 | 91.6
O=C(Nc1ccc2ncnc(Nc3cccc(Br)c3)c2c1)C1COc2ccccc2O1 (centres undefined) | 152 | 65.3 | 112
Fc1cc(Br)ccc1Nc1ncnc2cc3c(cc12)OCCO3 |  | 6.28 | 
O=C(Nc1ccc2ncnc(Nc3cccc(Cl)c3)c2c1)c1cccc2c1OCCO2 | 153 | 71.1 | > 153
Brc1cccc(Nc2ncnc3cc4c(cc23)OCCO4)c1 |  | 0.75 | 
FC(F)(F)c1cccc(Nc2ncnc3cc4c(cc23)OCCO4)c1 |  | 0.77 | 
O=C(Nc1ccc2ncnc(Nc3cccc(Br)c3)c2c1)c1cccc2c1OCCO2 | 92.8 | 31.7 | 131
Cc1cccc(Nc2ncnc3cc4c(cc23)OCCO4)c1 |  | 0.67 | 

Continued, values first:

IC50 (EGFR (human) [1]) [µM] | IC50 (EGFR (human) [2]) [µM] | IC50 (EGFR (human) [3]) [µM] | SMILES
7.31 | 4.03 | 22.6 | Brc1cccc(Nc2ncnc3ccc(NCc4ccc5c(c4)OCCCO5)cc23)c1
47.8 | 22.4 | > 149 | Brc1cccc(Nc2ncnc3ccc(NCc4ccc5c(c4)OCCCCO5)cc23)c1
21.6 | 10.2 | 103 | Brc1cccc(Nc2ncnc3ccc(NCc4ccc5c(c4)OCO5)cc23)c1
31.9 | 19.9 | 67 | Clc1cccc(Nc2ncnc3ccc(NCc4ccc5c(c4)OCCCCO5)cc23)c1
6.22 | 3.76 | 45.1 | Clc1cccc(Nc2ncnc3ccc(NCc4ccc5c(c4)OCCCO5)cc23)c1
14.6 | 17.1 | 79.5 | Brc1cccc(Nc2ncnc3ccc(NCc4ccc5c(c4)OCCO5)cc23)c1
